Assay: Phosphate binding assay (molybdate colorimetry, OD700) at pH 8.3
Conditions: KH2PO4 0.53M, room temperature (about 25° C.), 2 hours
Description: Since the phosphate uptake in human body mostly takes place in the intestine instead of stomach, we tested the phosphate-binding ability of the aforesaid 60% deacetylation chitosan citrate (CHS-60L) and 90% deacetylation chitosan citrate (CHS-90L) in an environment of pH 8.3, which mimicked to the intestine environment in vivo.
Briefly, KH2PO4 and the present chitosan citrate were mixed at room temperature (about 25° C.) for 2 hours. Then, 2 μl of the mixture of each group (and KH2PO4 without reaction with binding agents) was mixed with 120 μl of acetate buffer (0.1 N acetic acid and 0.025 N of CH3COONa), 12 μl of ascorbic acid (1 wt %), and […] of NH4MoO4 (1%, in 0.05 N H2SO4) at room temperature for 20 to 30 minutes. After that, the OD700 of the mixture was detected by spectrometer. The conventional phosphate binding agent, calcium carbonate, was used as positive control of the experiment.

O=C([O-])[O-].[Ca+2] [calcium carbonate]
Binding ability (%) (binding agent 10 mM): 70.90%
Binding ability (%) (binding agent 20 mM): 75.40%
